Data published in patent US12692232B2, “Indole carboxamide compound, preparation therefor and use thereof” (NANJING RUISHUNING MEDICAL TECHNOLOGY CO., LTD., priority 2021, dated 2026).

Test system: mouse model of focal segmental glomerulosclerosis
Assay: Mouse model of focal segmental glomerulosclerosis (adriamycin)
Type: in vivo
Details: for serum urea nitrogen level: model 16.08±0.23; for urine protein level: model 547.0±106.3; for glomerular lesions, renal tissue pathology (H&E, PAS, Sirius red stain): FIG. 1; for glomerular lesions, renal tissue pathology (H&E, PAS, Sirius red stain) / body weight compared with the FSGS group: control compound 25 mg/kg, irbesartan 50 mg/kg; for body weight compared with the FSGS group: gavage daily 6 weeks, compound 1-1 10, 25, 50 mg/kg
Experimental: The method was as follows:
Each mouse in the model group, the treatment groups and the positive control group was injected once into the tail vein with adriamycin at a dose of 8 mg/kg, and each mouse in the control group was injected once into the tail vein with saline at the same dose. The mice in the control group and model group were administered equal amount of saline by gavage for 6 weeks, and the mice in other group were administered corresponding compound in doses by gavage at a fixed time each day for 6 weeks after modelling with adriamycin. The body weights were recorded weekly and urine samples were collected.
Collection of urine samples: animals were placed in separate metabolic cages by group on days 0, 7, 14, 21, 28, 35, and 42 after modelling, with free access to water and no access to food, and urine samples were collected from each group of mice.
Determination of urine protein level using Coomassie brilliant blue (CBB) method: urine protein level was determined by urine protein quantitative test kit (Nanjing Jiancheng Bioengineering Institute). CBB working solution was prepared according to the kit instructions. 0.05 mL of each urine sample was mixed with 3 mL of CBB working solution, the mixture was allowed to stand for 5 min, and the absorbance value of each sample was determined at 595 nm. The urine protein levels samples of each group was calculated according to the protein standardization formula: urine protein level (mg/L)=(measured OD−blank OD)/(standard OD−blank OD)×563 mg/L.
Collection of serum samples: orbital blood from each mouse was collected in an EP tube, placed at 37° C. for 20 minutes, and centrifuged to obtain an upper layer of serum.
Collection of plasma samples: orbital blood from each mouse was collected in an anticoagulation tube, mixed well and stored at 4° C. for later use.
Determination of urea nitrogen level in plasma by diacetyl monoxime method: urea nitrogen level was determined by using blood urea nitrogen (BUN) test kit (Nanjing Jiancheng Bioengineering Institute). According to the kit instructions, 0.05 mL of anticoagulated plasma sample was mixed with 1 mL of oxime solution and 1 mL of acid working solution, and the mixtures were placed in a boiling water bath for 15 minutes. A UV-visible spectrophotometer was used to determine the absorbance values of each tube at a wavelength of 520 nm. Urea nitrogen levels in plasma samples of each group were calculated according to the formula: Urea nitrogen level (mmol/L)=(measured OD value−blank OD value)/(standard OD value−blank OD value)×10 mmol/L.
Collection of kidney tissue samples: kidneys were taken from mice after anesthesia, cut horizontally, and the upper part of the kidneys was embedded in OCT embedding box, sliced with frozen slicer and stored at −20° C.
H&E staining was used to assess pathological glomerular changes, and the procedure was as follows: frozen sections were fixed with 95% ethanol for 2 minutes, hydrated with distilled water, stained with hematoxylin for 3 minutes, washed with distilled water for 3 minutes, differentiated using 1% hydrochloric acid in ethanol for 10 seconds, washed with distilled water for 30 seconds, returned to blue in running water for 5 minutes, washed in distilled water for 30 seconds, stained with eosin for 30 seconds, washed with 75% and 85% ethanol for 20 seconds each, dehydrated rapidly with 95% ethanol for 1 minute, dehydrated with anhydrous ethanol, cleared to transparency in xylene (1 minute×3), and finally sealed with neutral balsam and photographed with a biomicroscope.

Row | SMILES | serum urea nitrogen level reduced compared with the model group (25 mg/kg gavage, 6 weeks) | urine protein level reduced compared with the model group (25 mg/kg gavage, 6 weeks) | serum urea nitrogen level (25 mg/kg gavage, 6 weeks) | urine protein level (25 mg/kg gavage, 6 weeks) | glomerular lesions, renal tissue pathology (H&E, PAS, Sirius red stain) | body weight compared with the FSGS group | serum urea nitrogen level vs model group (10 mg/kg gavage, 6 weeks) | urine protein level vs model group (10 mg/kg gavage, 6 weeks) | serum urea nitrogen level reduced compared with the model group (50 mg/kg gavage, 6 weeks) | urine protein level reduced compared with the model group (50 mg/kg gavage, 6 weeks) | serum urea nitrogen level (50 mg/kg gavage, 6 weeks) | urine protein level (50 mg/kg gavage, 6 weeks)
1 | Cn1c(C(=O)NCCC(=O)O)cc2ccccc21 [3-[(1-methyl-1H-indole-2-carbonyl)amino]propionic acid, reference compound] | 20.3% | 22.6% | 12.82 ± 0.46 mmol/L | 423 ± 64.7 mg/L | glomerular mesangial matrix hyperplasia is reduced compared with the model group, but increased compared with the treatment groups of compound 1-1 | increased body weights |  |  |  |  |  | 
2 | CC(=O)OCCCNC(=O)c1c(C=O)c2ccccc2n1C [compound 1-1, propyl 3-[(3-formyl-1-methyl-1H-indole-2-carbonyl)amino]acetate] | 27.2% | 28.6% | 11.7 ± 0.33 mmol/L | 390 ± 74.6 mg/L | significantly ameliorates glomerular lesions caused by FSGS | increased body weights | significantly reduced | significantly reduced | 29.8% | 42.7% | 11.29 ± 0.40 mmol/L | 313 ± 57.6 mg/L
